{"source": "patent US20230263786A1", "about": "“MODULATION OF DRUG-DRUG INTERACTIONS OF VADADUSTAT” (Akebia Therapeutics, Inc., priority 2020, published 2023)", "key": {"erythropoietin": {"test_system": "erythropoietin", "experiment": "Blood erythropoietin concentration increasing action", "assay_type": "in vivo", "details": "normal rat, single oral administration"}, "[1]": {"test_system": "hemoglobin concentration and red blood cell count", "experiment": "Hemoglobin concentration and red blood cell count after repeated dosing", "assay_type": "in vivo, rat", "details": "normal rats, repeated oral administration for 14 days"}, "[2]": {"experiment": "Plasma pharmacokinetics, 150/300/600 mg once daily, first day", "assay_type": "in vivo", "details": "male, human, healthy adult men"}, "[3]": {"experiment": "Influence of meal on pharmacokinetics, single 450 mg dose", "details": "male, human, in vivo, oral", "method": "The median tmax of this drug was prolonged by postprandial administration for about 1.5 hours as compared with fasting."}, "[4]": {"experiment": "Plasma protein binding, equilibrium dialysis", "assay_type": "in vitro ADME", "details": "human, in vitro, read-out: human plasma protein binding rate", "from_the_text": "The human plasma protein binding rate of this drug was higher than 99% (in vitro, equilibrium dialysis)."}, "CYP2C8": {"biological_target": "T1, CYP2C8 (Homo sapiens, UniProt P10632)", "T1 sequence (P10632 1-490)": "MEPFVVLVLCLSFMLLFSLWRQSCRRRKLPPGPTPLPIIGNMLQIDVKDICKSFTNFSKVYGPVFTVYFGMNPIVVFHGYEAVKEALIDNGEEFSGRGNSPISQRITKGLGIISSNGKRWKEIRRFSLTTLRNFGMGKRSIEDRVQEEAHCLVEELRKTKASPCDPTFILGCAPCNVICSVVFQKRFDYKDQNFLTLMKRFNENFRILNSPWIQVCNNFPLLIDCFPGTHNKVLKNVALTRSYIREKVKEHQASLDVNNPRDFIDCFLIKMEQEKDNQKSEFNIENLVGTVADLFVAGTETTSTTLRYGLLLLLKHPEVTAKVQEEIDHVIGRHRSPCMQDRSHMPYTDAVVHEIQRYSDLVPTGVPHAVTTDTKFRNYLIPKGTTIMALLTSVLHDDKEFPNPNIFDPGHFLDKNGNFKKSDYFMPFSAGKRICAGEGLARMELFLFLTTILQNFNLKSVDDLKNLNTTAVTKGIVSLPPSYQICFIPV", "experiment": "CYP2C8 inhibition in vitro", "assay_type": "in vitro ADME"}, "clinical": {"experiment": "clinical", "details": "male, human, plasma, oral, 450 mg", "experimental": "(§1) Pharmacokinetics. […] The ratio of metabolite to parent was calculated for each glucuronide metabolite for AUC(0-t); and AUC(0-inf) and Cmax.\n(§2) Comparative Bioavailability. […] Factors incorporated in the model included: Sequence, Subject (Sequence), Period, and Treatment.\n(§3) Treatment of Subjects. […] All subjects are dosed on the same day for Day 1 of Confinement Period 1, and are crossed over to the alternate treatment and are dosed on the same day for Day 1 of Confinement Period 2. Both treatments are administered in a fasted state, and a four-day Washout Period separates each Confinement Period."}, "[5]": {"experiment": "Phase I ferrous sulfate tablet interaction study;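 also: crossover in fasted human subjects with four-day washout between periods, plasma glucuronide metabolite pharmacokinetics, ratios computed as metabolite over parent for AUC and Cmax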", "experimental": "as §1, §2, §3"}, "[6]": {"details": "After Meal, healthy adult males"}, "[7]": {"details": "Compound 1+Iron compared to Compound 1 alone"}}, "data": [{"compound": "O=C(O)CNC(=O)c1ncc(-c2cccc(Cl)c2)cc1O", "note": "[Compound 1, {[5-(3-chlorophenyl)-3-hydroxypyridine-2-carbonyl]amino}acetic acid]", "values": [{"measurement": "blood erythropoietin levels", "setting": "erythropoietin", "value": "elevated"}, {"measurement": "hemoglobin concentration", "setting": "[1]", "value": "increasing"}, {"measurement": "red blood cell count", "setting": "[1]", "value": "increasing"}, {"measurement": "AUC(0-t)", "setting": "[2]; 150 mg once daily", "value": "123 ± 30.5", "unit": "µg·h/mL"}, {"measurement": "Cmax", "setting": "[2]; 150 mg once daily", "value": "24200 ± 4990", "unit": "ng/mL"}, {"measurement": "Tmax", "setting": "[2]; 150 mg once daily", "value": 0.75, "unit": "h"}, {"measurement": "half-life", "setting": "[2]; 150 mg once daily", "value": "5.96 ± 0.914", "unit": "h"}, {"measurement": "AUC(0-t)", "setting": "[2]; 300 mg once daily", "value": "289 ± 75.3", "unit": "µg·h/mL"}, {"measurement": "Cmax", "setting": "[2]; 300 mg once daily", "value": "44300 ± 10800", "unit": "ng/mL"}, {"measurement": "Tmax", "setting": "[2]; 300 mg once daily", "value": 1.95, "unit": "h"}, {"measurement": "half-life", "setting": "[2]; 300 mg once daily", "value": "6.14 ± 0.763", "unit": "h"}, {"measurement": "AUC(0-t)", "setting": "[2]; 600 mg once daily", "value": "624 ± 205", "unit": "µg·h/mL"}, {"measurement": "Cmax", "setting": "[2]; 600 mg once daily", "value": "84800 ± 22300", "unit": "ng/mL"}, {"measurement": "Tmax", "setting": "[2]; 600 mg once daily", "value": 1.98, "unit": "h"}, {"measurement": "half-life", "setting": "[2]; 600 mg once daily", "value": "6.07 ± 0.419", "unit": "h"}, {"measurement": "AUC(0-inf)", "setting": "[3]; [6]", "value": "351 ± 101", "unit": "µg·h/mL"}, {"measurement": "Cmax", "setting": "[3]; [6]", "value": "46300 ± 12200", "unit": "ng/mL"}, {"measurement": "Tmax", "setting": "[3]; After Meal, healthy adult males, read-out: tmax", "value": 3.52, "unit": "h"}, {"measurement": "AUC(0-inf)", "setting": "[3]; Fasting, healthy adult males", "value": "371 ± 100", "unit": "µg·h/mL"}, {"measurement": "Cmax", "setting": "[3]; Fasting, healthy adult males", "value": "63100 ± 14600", "unit": "ng/mL"}, {"measurement": "Tmax", "setting": "[3]; Fasting, healthy adult males, read-out: tmax", "value": 2, "unit": "h"}, {"measurement": "Tmax", "setting": "[3]; compared with fasting, read-out: prolongation of median tmax by postprandial administration", "value": "~1.5", "unit": "h"}, {"measurement": "fraction unbound", "setting": "[4]", "value": "< 0.01"}, {"measurement": "inhibitory effect on CYP2C8", "setting": "CYP2C8", "value": "inhibitory effect"}, {"measurement": "AUC(0-inf)", "setting": "clinical", "value": 263, "unit": "µg·h/mL"}, {"measurement": "AUC(0-t)", "setting": "clinical", "value": 253, "unit": "µg·h/mL"}, {"measurement": "Cmax", "setting": "clinical", "value": 45300, "unit": "ng/mL"}, {"measurement": "Tmax", "setting": "clinical", "value": 3, "unit": "h"}, {"measurement": "lowering of Cmax", "setting": "[5]; [7]", "value": "approximately 51%"}, {"measurement": "lowering of mean plasma AUC (AUC0-t and AUC0-inf)", "setting": "[5]; [7]", "value": "approximately 54%"}, {"measurement": "AEs, SAEs, deaths", "setting": "[5]; single 450 mg dose with or without ferrous sulfate", "value": "no AEs, SAEs, or deaths"}]}]}
